Data from PubChem BioAssay (NCI).
Values joined by “and” are separate entries in the source; they are usually repeats but may differ in a detail not shown here. Equal entries are not always repeated.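 Exposure lasted 48 hours, with cells grown in 96-well plates and compounds tested at five concentrations. Here, GI50 denotes the concentration required for 50% inhibition of growth. TGI: total growth inhibition.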

Experiments:
Assay in all cases: DTP human tumour cell line panel, 48 h
CAKI-1 renal = system: CAKI-1 renal
HT29 colon = system: HT29 colon
SK-MEL-28 melanoma = system: SK-MEL-28 melanoma
U251 CNS = system: U251 CNS
UACC-62 melanoma = system: UACC-62 melanoma
OVCAR-4 ovarian = system: OVCAR-4 ovarian
RPMI-8226 leukemia = system: RPMI-8226 leukemia
SK-MEL-5 melanoma = system: SK-MEL-5 melanoma
DU-145 prostate = system: DU-145 prostate
T-47D breast = system: T-47D breast

| SMILES | TGI (CAKI-1 renal) | TGI (HT29 colon) | TGI (SK-MEL-28 melanoma) | TGI (U251 CNS) [µM] | TGI (UACC-62 melanoma) [µM] | TGI (OVCAR-4 ovarian) | TGI (RPMI-8226 leukemia) | TGI (SK-MEL-5 melanoma) [µM] | GI50 (CAKI-1 renal) [µM] | GI50 (DU-145 prostate) [µM] | TGI (DU-145 prostate) | GI50 (HT29 colon) [µM] | GI50 (OVCAR-4 ovarian) [µM] | GI50 (RPMI-8226 leukemia) [µM] | GI50 (SK-MEL-28 melanoma) [µM] | GI50 (SK-MEL-5 melanoma) [µM] | GI50 (U251 CNS) [µM] | GI50 (UACC-62 melanoma) [µM] | GI50 (T-47D breast) [µM] | TGI (T-47D breast) [µM] |
| --- | --- | --- | --- | --- | --- | --- | --- | --- | --- | --- | --- | --- | --- | --- | --- | --- | --- | --- | --- | --- |
| O=C(C=Nc1ccccc1C(=O)[O-])c1cccs1.O=C(C=Nc1ccccc1C(=O)[O-])c1cccs1.[Ni+2] | > 100 µM | > 100 µM | > 100 µM | > 100 | > 100 | – | – | – | – | – | – | – | – | – | – | – | – | – | – | – |
| COC(=O)C1CSC(c2csc(CCN)n2)=N1 (stereo not drawn) | > 100 µM | > 100 µM | > 100 µM | > 100 | > 100 | > 100 µM | > 100 µM | > 100 | – | – | – | – | – | – | – | – | – | – | – | – |
| Cc1ccc([P+](Cc2ccccc2)(c2ccccc2)c2ccccc2)cc1 | > 100 µM | 10.5 µM | 25.8 µM | 24.4 | 11.3 | > 100 µM | 6.63 µM | 2.3 | 5.83 | 3.62 | > 100 µM | 1.6 | 2.62 | 0.6 | 3.13 | 0.904 | 2.14 | 1.77 | – | – |
| CC1(C)CC(=O)C=C(/C=C/Sc2c(Cl)c(Cl)nc(Cl)c2Cl)C1 | 5.4 µM | 47.1 µM | 31.9 µM | 28.5 | 20.8 | 57.9 µM | 75.1 µM | 24.4 | 2.23 | 10 | 21.7 µM | 16.5 | 20.3 | 3.41 | 15.5 | 11.8 | 14.8 | 8.48 | – | – |
| COc1ccc(/C=C/C(=O)c2c(O)ccc3c(C)c(C(=O)O)oc23)cc1 | > 100 µM | > 100 µM | > 100 µM | > 100 | > 100 | > 100 µM | – | > 100 | 63.2 | > 100 | > 100 µM | > 100 | > 100 | – | > 100 | 46.4 | 33.2 | 55 | 64.7 | > 100 |
| COc1ccc2c(c1)[n+]([O-])c(-c1cccc(Cl)c1)c(N)[n+]2[O-] | > 100 µM | > 100 µM | 83 µM | > 100 | – | > 100 µM | – | 39.5 | – | – | – | – | – | – | – | – | – | – | – | – |
| COc1cc2c(c(O)c1Cl)C(=O)c1c(O)cc(C[C@H](C)O)cc1[C@H]2[C@H]1c2cc(C[C@H](C)O)cc(O)c2C(=O)c2c1cc(OC)c(Cl)c2O | 11.4 µM and > 100 µM | 75 µM and > 100 µM | 75 µM and > 100 µM | – | – | 75 µM and > 100 µM | 75 µM and 74.4 µM | – | – | – | 75 µM and > 100 µM | – | – | – | – | – | – | – | – | – |
| O=C(O)CN(c1ccccc1)S(=O)(=O)c1cccc([N+](=O)[O-])c1 | > 100 µM | > 100 µM | > 100 µM | > 100 | > 100 | > 100 µM | > 100 µM | > 100 | – | – | – | – | – | – | – | – | – | – | – | – |
| O=C(CCCn1c2c(sc3ccccc32)c(=O)n2nnc(-c3ccccc3)c12)NCCc1cnc[nH]1 | – | 2.36 µM | 2.36 µM | 1.75 | 3.39 | 4.33 µM | – | 11.4 | – | 0.833 | 2.2 µM | 0.719 | 1.84 | – | 1.01 | 1.84 | 0.128 | 1.81 | 0.638 | 10.5 |
| C/C(CCn1[nH]c(=O)ccc1=O)=N\NC(=O)C(N)=O | > 100 µM | > 100 µM | > 100 µM | > 100 | > 100 | > 100 µM | – | > 100 | – | – | – | – | – | – | – | – | – | – | – | – |
| O=C1C(=c2ccc(=C3C(=O)c4ccc([N+](=O)[O-])cc4[N+]3=O)cc2)N([O-])c2cc([N+](=O)[O-])ccc21 | > 100 µM | > 100 µM | > 100 µM | > 100 | – | > 100 µM | – | > 100 | > 100 | – | – | > 100 | > 100 | – | > 100 | > 100 | > 100 | – | – | – |
| COC(=O)[C@H]1COC(=S)N1C(=O)[C@@H](C)[C@H](O)C(C)C | > 100 µM | > 100 µM | > 100 µM | > 100 | > 100 | > 100 µM | > 100 µM | > 100 | – | – | – | – | – | – | – | – | – | – | – | – |
| Cc1ccc(C)c2c1C(=O)N(c1ccc(F)cc1F)C2=O | > 100 µM | > 100 µM | > 100 µM | > 100 | > 100 | > 100 µM | > 100 µM | – | > 100 | > 100 | > 100 µM | > 100 | > 100 | 98.8 | > 100 | – | 89.3 | > 100 | 74.5 | > 100 |
| O=C(COc1ccccc1Cl)N1N=C(c2ccccc2)CC1(O)c1ccccc1 (stereo not drawn) | 91.8 µM | 30.7 µM | 31.7 µM | 23.9 | 33.5 | 23.4 µM | 32.9 µM | – | – | – | – | – | – | – | – | – | – | – | – | – |
| COC(=O)Cc1c([C@@]2(C)CCCC(C)(C)C2)ccc2c1C(=O)OC2 | – | 28.4 µM | 34.9 µM | 29.7 | 31.4 | – | 14.6 µM | 25.6 | – | – | – | – | – | – | – | – | – | – | – | – |
| COC1=CC(c2ccc[nH]2)=N/C1=C\c1[nH]c(C)c(C(=O)CCC(=O)Oc2ccc3c(c2)CCC2C3CC[C@]3(C)[C@@H](O)CC[C@@H]23)c1C (stereo partly drawn) | > 100 µM | – | > 100 µM | 28.4 | 4.62 | > 100 µM | – | 2.91 | 2.38 | 3.54 | > 100 µM | – | 5.02 | – | 5.64 | 1.46 | 2.99 | 1.7 | 2.19 | > 100 |
| COc1ccc(Nc2nc3cc(C(F)(F)F)ccc3nc2-c2ccccc2)cc1OC | 68.8 µM | > 100 µM | 63.8 µM | > 100 | > 100 | > 100 µM | – | > 100 | – | – | – | – | – | – | – | – | – | – | – | – |
| OCC1OC2c3ccccc3COC2C1OCc1ccccc1 (stereo not drawn) | > 100 µM | > 100 µM | > 100 µM | > 100 | > 100 | > 100 µM | > 100 µM | > 100 | – | – | – | – | – | – | – | – | – | – | – | – |
| c1ccc2c(c1)SC(=C1Sc3ccccc3S1)S2 | > 100 µM | > 100 µM | > 100 µM | > 100 | > 100 | > 100 µM | – | – | – | – | – | – | – | – | – | – | – | – | – | – |
